According to patent US9676757B2, “Heterocyclic compounds as NaV channel inhibitors and uses thereof” (Merck Patent GmbH, priority 2014, dated 2017):
Read-outs that look alike come from different tables or passages of the source.

Biological target: Nav1.6 (Homo sapiens, UniProt Q9UQD0)
Assay: Nav two-pulse protocol, IonWorks Quattro electrophysiology
Format: cell-based
Conditions: -120 mV to 0 mV, compound incubated 300 s
Protocol: Compound Plate Preparation
Supplied compounds were sent as Assay Ready Plates, with 2 μL per well of compound in DMSO at 300× the final assay concentrations as described above and in the project proposal. All assay plates are stored at in a −80° C. freezer.
On the day of the assay, 198 μL of external solution was added to the appropriate assay plate and mixed thoroughly. This provided a 1:100 dilution. A further 1:3 dilution occurred upon addition to the cells in the IonWorks, giving a 1:300 dilution in total.
On each assay plate, at least 8 wells were reserved for vehicle control (0.3% DMSO) and at least 8 wells for each positive control specific to the cell line tested. The positive controls were tested in an 8-point dose response with 3-fold dilutions to determine an IC50 value for each run. The positive control compounds are outlined below.
Ion Channel Positive Control & Concentrations
Nav1.6/1.2 Lidocaine: 8, 3-fold dilutions starting at 100 μM
Electrophysiological Recording Solutions
The solutions for recording currents were are follows:
Amphotericin B was used to obtain electrical access to the cell interior at a final concentration of 200 μg/ml in internal recording solution.
Experimental Protocols & Data Analysis
Nav currents were evoked by stepping from a holding potential of −120 mV to 0 mV for 2.5 s (pulse 1), followed by a 5 ms inter-pulse interval, and stepping from a holding potential of −120 mV to 0 mV for 20 ms (pulse 2). The voltage protocol was applied (Pre), compounds added, incubated for 300 seconds, and the voltage protocol was applied a final time (Post) on the IonWorks Quattro.
The parameters measured were the maximum inward current evoked on stepping to 0 mV from the 1st and 2nd pulse. All data were filtered for seal quality, seal drop, and current amplitude. The peak current amplitude (Peak) was calculated before (Pre) and after (Post) compound addition to the amount of block was assessed by dividing the Post-compound current amplitude by the Pre-compound current amplitude. These procedures were implemented for the 1st and 2nd pulse.

Nav1.6, sequence (Q9UQD0 whole entry): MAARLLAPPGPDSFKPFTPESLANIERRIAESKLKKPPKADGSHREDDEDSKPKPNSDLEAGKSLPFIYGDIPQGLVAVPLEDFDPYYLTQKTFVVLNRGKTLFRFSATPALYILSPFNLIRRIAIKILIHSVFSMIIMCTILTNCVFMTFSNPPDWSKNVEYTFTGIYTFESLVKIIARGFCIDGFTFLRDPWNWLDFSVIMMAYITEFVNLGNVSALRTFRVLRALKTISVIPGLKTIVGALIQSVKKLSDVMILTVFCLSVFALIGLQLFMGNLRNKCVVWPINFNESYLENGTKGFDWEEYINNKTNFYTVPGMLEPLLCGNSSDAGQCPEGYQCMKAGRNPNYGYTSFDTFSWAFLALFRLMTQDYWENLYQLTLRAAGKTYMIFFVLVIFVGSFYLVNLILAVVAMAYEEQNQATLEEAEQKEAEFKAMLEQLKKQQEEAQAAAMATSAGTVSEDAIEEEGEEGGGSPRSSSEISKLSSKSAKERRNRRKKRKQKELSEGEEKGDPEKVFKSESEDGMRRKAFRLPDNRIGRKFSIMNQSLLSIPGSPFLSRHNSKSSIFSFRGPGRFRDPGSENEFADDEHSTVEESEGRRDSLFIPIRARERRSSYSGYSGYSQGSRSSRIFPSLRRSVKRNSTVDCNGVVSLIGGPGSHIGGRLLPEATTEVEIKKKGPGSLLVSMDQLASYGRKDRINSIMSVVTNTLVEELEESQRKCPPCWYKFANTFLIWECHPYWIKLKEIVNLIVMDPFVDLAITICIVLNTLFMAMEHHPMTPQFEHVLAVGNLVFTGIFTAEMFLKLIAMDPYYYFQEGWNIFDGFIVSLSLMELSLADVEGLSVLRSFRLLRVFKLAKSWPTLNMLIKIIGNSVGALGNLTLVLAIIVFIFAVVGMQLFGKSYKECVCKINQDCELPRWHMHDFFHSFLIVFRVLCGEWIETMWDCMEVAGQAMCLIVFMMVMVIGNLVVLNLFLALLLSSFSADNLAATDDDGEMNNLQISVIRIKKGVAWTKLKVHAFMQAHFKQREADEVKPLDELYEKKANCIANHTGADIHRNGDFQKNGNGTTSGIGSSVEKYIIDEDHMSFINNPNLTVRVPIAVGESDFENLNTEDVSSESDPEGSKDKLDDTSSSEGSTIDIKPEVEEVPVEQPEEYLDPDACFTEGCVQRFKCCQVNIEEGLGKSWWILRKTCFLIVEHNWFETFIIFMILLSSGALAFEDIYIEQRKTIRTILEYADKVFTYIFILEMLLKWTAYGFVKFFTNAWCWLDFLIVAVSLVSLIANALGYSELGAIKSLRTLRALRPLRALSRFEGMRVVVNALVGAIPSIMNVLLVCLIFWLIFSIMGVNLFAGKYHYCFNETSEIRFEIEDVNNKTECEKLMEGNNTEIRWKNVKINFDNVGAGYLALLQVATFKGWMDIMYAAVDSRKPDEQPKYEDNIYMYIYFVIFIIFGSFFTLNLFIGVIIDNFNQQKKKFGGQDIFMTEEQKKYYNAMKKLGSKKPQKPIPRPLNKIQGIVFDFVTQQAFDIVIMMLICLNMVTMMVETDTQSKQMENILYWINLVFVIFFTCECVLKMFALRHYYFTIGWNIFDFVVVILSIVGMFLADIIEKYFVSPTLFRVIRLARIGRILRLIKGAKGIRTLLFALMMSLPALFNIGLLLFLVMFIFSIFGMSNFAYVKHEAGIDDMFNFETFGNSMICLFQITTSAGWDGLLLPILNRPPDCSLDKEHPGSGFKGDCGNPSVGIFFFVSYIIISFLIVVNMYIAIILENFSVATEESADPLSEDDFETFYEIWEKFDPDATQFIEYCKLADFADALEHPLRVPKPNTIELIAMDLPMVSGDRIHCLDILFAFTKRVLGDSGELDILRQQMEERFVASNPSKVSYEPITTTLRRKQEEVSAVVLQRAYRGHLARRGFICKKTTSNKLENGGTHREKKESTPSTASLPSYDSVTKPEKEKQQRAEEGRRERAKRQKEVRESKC

Structure (SMILES) | IC50 (read-out: Nav1.6 Tonic) | IC50 (read-out: Nav1.6 inac)
O=C(NCc1ccc(Cl)cc1)C1CCN(Cc2cccc(Oc3ccccc3)c2)C1 (centres unmarked) [Compound 68, 1-(3-Phenoxy-benzyl)-pyrrolidine-3-carboxylic acid 4-chloro-benzylamide] | 10 to 20 µM | 1 to 5 µM
O=C(NCc1cccc(Cl)c1)C1CCN(Cc2cccc(Oc3ccccc3)c2)C1 (centres unmarked) [Compound 69, 1-(3-Phenoxy-benzyl)-pyrrolidine-3-carboxylic acid 3-chloro-benzylamide] | > 20 µM | < 1 µM
O=C(NCc1cccc(C(F)(F)F)c1)C1CCN(Cc2cccc(Oc3ccccc3)c2)C1 (centres unmarked) [Compound 70, 1-(3-Phenoxy-benzyl)-pyrrolidine-3-carboxylic acid 3-trifluoromethyl-benzylamide] | 10 to 20 µM | 1 to 5 µM
O=C(NCc1ccc(C(F)(F)F)cc1)C1CCN(Cc2cccc(Oc3ccccc3)c2)C1 (centres unmarked) [Compound 71, 1-(3-Phenoxy-benzyl)-pyrrolidine-3-carboxylic acid 4-trifluoromethyl-benzylamide] | 10 to 20 µM | 1 to 5 µM
O=C(NCc1ccccc1F)C1CCN(Cc2cccc(Oc3ccccc3)c2)C1 (centres unmarked) [Compound 73, 1-(3-Phenoxy-benzyl)-pyrrolidine-3-carboxylic acid 2-fluoro-benzylamide] | 10 to 20 µM | 1 to 5 µM
O=C(NCc1cccc(F)c1)C1CCN(Cc2cccc(Oc3ccccc3)c2)C1 (centres unmarked) [Compound 74, 1-(3-Phenoxy-benzyl)-pyrrolidine-3-carboxylic acid 3-fluoro-benzylamide] | 10 to 20 µM | 1 to 5 µM
O=C(NCc1cc(F)cc(F)c1)C1CCN(Cc2cccc(Oc3ccccc3)c2)C1 (centres unmarked) [Compound 76, 1-(3-Phenoxy-benzyl)-pyrrolidine-3-carboxylic acid 3,5-difluoro-benzylamide] | 10 to 20 µM | < 1 µM
O=C(NCc1ccc(F)cc1F)C1CCN(Cc2cccc(Oc3ccccc3)c2)C1 (centres unmarked) [Compound 78, 1-(3-Phenoxy-benzyl)-pyrrolidine-3-carboxylic acid 2,4-difluoro-benzylamide] | 10 to 20 µM | 1 to 5 µM
O=C(NCc1c(F)cccc1F)C1CCN(Cc2cccc(Oc3ccccc3)c2)C1 (centres unmarked) [Compound 79, 1-(3-Phenoxy-benzyl)-pyrrolidine-3-carboxylic acid 2,6-difluoro-benzylamide] | 10 to 20 µM | < 1 µM
O=C(NCc1ccc(F)c(F)c1)C1CCN(Cc2cccc(Oc3ccccc3)c2)C1 (centres unmarked) [Compound 80, 1-(3-Phenoxy-benzyl)-pyrrolidine-3-carboxylic acid 3,4-difluoro-benzylamide] | 10 to 20 µM | < 1 µM
Cc1cccc(CNC(=O)C2CCN(Cc3cccc(Oc4ccccc4)c3)C2)c1 (centres unmarked) [Compound 82, 1-(3-Phenoxy-benzyl)-pyrrolidine-3-carboxylic acid 3-methyl-benzylamide] | 10 to 20 µM | < 1 µM
Cc1ccc(F)cc1CNC(=O)C1CCN(Cc2cccc(Oc3ccccc3)c2)C1 (centres unmarked) [Compound 84, 1-(3-Phenoxy-benzyl)-pyrrolidine-3-carboxylic acid 5-fluoro-2-methyl-benzylamide] | 10 to 20 µM | < 1 µM
O=C(NCc1nc(-c2ccccc2)cs1)C1CCN(Cc2cccc(Oc3ccccc3)c2)C1 (centres unmarked) [Compound 85, 1-(3-Phenoxy-benzyl)-pyrrolidine-3-carboxylic acid (4-phenyl-thiaz-1-2-ylmethyl)-amide] | > 20 µM | 1 to 5 µM
O=C(NCCc1c[nH]cn1)C1CCN(Cc2cccc(Oc3ccccc3)c2)C1 (centres unmarked) [Compound 86, 1-(3-Phenoxy-benzyl)-pyrrolidine-3-carboxylic acid [2-(1H-imidazol-4-yl)-ethyl]-amide] | – | > 5 µM
O=C(NCc1cccs1)C1CCN(Cc2cccc(Oc3ccccc3)c2)C1 (centres unmarked) [Compound 88, 1-(3-Phenoxy-benzyl)-pyrrolidine-3-carboxylic acid (thiophen-2-ylmethyl)-amide] | > 20 µM | < 1 µM
Cc1cnc(CNC(=O)C2CCN(Cc3cccc(OCC(F)(F)F)c3)C2)cn1 (centres unmarked) [Compound 89, 1-[3-(2,2,2-Trifluoro-ethoxy)-benzyl]-pyrrolidine-3-carboxylic acid (5-methyl-pyrazin-2-ylmethyl)-amide] | > 20 µM | 1 to 5 µM
Cc1cccnc1CNC(=O)C1CCN(Cc2cccc(OCC(F)(F)F)c2)C1 (centres unmarked) [Compound 90, 1-[3-(2,2,2-Trifluoro-ethoxy)-benzyl]-pyrrolidine-3-carboxylic acid (3-methyl-pyridin-2-ylmethyl)-amide] | > 20 µM | 1 to 5 µM
O=C(NCc1ccccn1)C1(O)CCN(Cc2cccc(Oc3ccccc3)c2)C1=O (centres unmarked) [Compound 94, 3-Hydroxy-2-oxo-1-(3-phenoxy-benzyl)-pyrrolidine-3-carboxylic acid (pyridin-2-ylmethyl)-amide] | > 20 µM | 1 to 5 µM
O=C(NCc1ccccn1)C1(Cl)CCN(Cc2cccc(Oc3ccccc3)c2)C1=O (centres unmarked) [Compound 95, 3-Chloro-2-oxo-1-(3-phenoxy-benzyl)-pyrrolidine-3-carboxylic acid (pyridin-2-ylmethyl)-amide] | > 20 µM | > 5 µM
CC1(C(=O)NCc2ccccn2)CCN(Cc2coc(-c3ccccc3)n2)C1 (centres unmarked) [Compound 99, 3-Methyl-1-(2-phenyl-oxazol-4-ylmethyl)-pyrrolidine-3-carboxylic acid (pyridin-2-ylmethyl)-amide] | > 20 µM | 1 to 5 µM

Second part, the molecule after the results:

IC50 (read-out: Nav1.6 Tonic) | IC50 (read-out: Nav1.6 inac) | Structure (SMILES)
10 to 20 µM | 1 to 5 µM | O=C(NCc1ccccc1C(F)(F)F)C1CCN(Cc2cccc(Oc3ccccc3)c2)C1 (centres unmarked) [Compound 72, 1-(3-Phenoxy-benzyl)-pyrrolidine-3-carboxylic acid 2-trifluoromethyl-benzylamide]
10 to 20 µM | 1 to 5 µM | O=C(NCc1ccc(F)cc1)C1CCN(Cc2cccc(Oc3ccccc3)c2)C1 (centres unmarked) [Compound 75, 1-(3-Phenoxy-benzyl)-pyrrolidine-3-carboxylic acid 4-fluoro-benzylamide]
10 to 20 µM | < 1 µM | O=C(NCc1cc(F)ccc1F)C1CCN(Cc2cccc(Oc3ccccc3)c2)C1 (centres unmarked) [Compound 77, 1-(3-Phenoxy-benzyl)-pyrrolidine-3-carboxylic acid 2,5-difluoro-benzylamide]
10 to 20 µM | < 1 µM | CC(C)(C)c1ccc(CNC(=O)C2CCN(Cc3cccc(Oc4ccccc4)c3)C2)cc1 (centres unmarked) [Compound 81, 1-(3-Phenoxy-benzyl)-pyrrolidine-3-carboxylic acid 4-tert-butyl-benzylamide]
> 20 µM | 1 to 5 µM | Cc1ccc(CNC(=O)C2CCN(Cc3cccc(Oc4ccccc4)c3)C2)cc1 (centres unmarked) [Compound 83, 1-(3-Phenoxy-benzyl)-pyrrolidine-3-carboxylic acid 4-methyl-benzylamide]
< 10 µM | < 1 µM | O=C(NCC1CCCO1)C1CCN(Cc2cccc(Oc3ccccc3)c2)C1 (centres unmarked) [Compound 87, 1-(3-Phenoxy-benzyl)-pyrrolidine-3-carboxylic acid (tetrahydro-furan-2-ylmethyl)-amide]
> 20 µM | > 5 µM | Cc1ccc(CNC(=O)C2CCN(Cc3cccc(Oc4ccccc4)c3)C2)o1 (centres unmarked) [Compound 91, 1-(3-Phenoxy-benzyl)-pyrrolidine-3-carboxylic acid (5-methyl-furan-2-ylmethyl)-amide]
> 20 µM | 1 to 5 µM | O=C(NCc1cccc(C(F)(F)F)n1)C1CCN(Cc2cccc(OCC(F)(F)F)c2)C1 (centres unmarked) [Compound 92, 1-[3-(2,2,2-Trifluoro-ethoxy)-benzyl]-pyrrolidine-3-carboxylic acid (6-trifluoromethyl-pyridin-2-ylmethyl)-amide]
> 20 µM | 1 to 5 µM | O=C(NCc1ccccn1)C1(O)CCN(Cc2cccc(Oc3ccccc3)c2)C1 (centres unmarked) [Compound 93, 3-hydroxy-1-(phenyloxy-benzyl)-pyrrolidine-3-carboxylic acid (pyridin-2-ylmethyl)-amide]
> 20 µM | > 5 µM | O=C(NCc1ccc(OC(F)F)cc1)C1CCN(Cc2cccc(Oc3ccccc3)c2)C1 (centres unmarked) [Compound 96, 1-(3-Phenoxy-benzyl)-pyrrolidine-3-carboxylic acid 4-difluoromethoxy-benzylamide]
> 20 µM | > 5 µM | Cc1ccc(CNC(=O)C2CCN(Cc3cccc(OCC(F)(F)F)c3)C2)nc1 (centres unmarked) [Compound 97, 1-[3-(2,2,2-Trifluoro-ethoxy)-benzyl]-pyrrolidine-3-carboxylic acid (5-methyl-pyridin-2-ylmethyl)-amide]
> 20 µM | > 5 µM | O=C(NCc1ncccc1F)C1CCN(Cc2cccc(OCC(F)(F)F)c2)C1 (centres unmarked) [Compound 98, 1-[3-(2,2,2-Trifluoro-ethoxy)-benzyl]-pyrrolidine-3-carboxylic acid (3-fluoro-pyridin-2-ylmethyl)-amide]
10 to 20 µM | 1 to 5 µM | CCNC(=O)C1CN(Cc2cccc(Oc3ccccc3)c2)CCO1 (centres unmarked) [Compound 100, 4-(3-Phenoxy-benzyl)-morpholine-2-carboxylic acid ethylamide]
